Results as given in patent US11168073B2, “3,3-difluoroallylamines or salts thereof and pharmaceutical compositions comprising the same” (YUHAN CORPORATION, priority 2018, dated 2021).
Structures can show the parent of a compound that is named as a salt. Where two headings read alike, the source gives them in different places.

What was measured:
Assay type in all cases: biochemical
[1] = molecular target: T1, recombinant human VAP-1 (Homo sapiens, UniProt Q16853); test: Activity evaluation on recombinant human VAP-1 (Amplex Red/HRP-coupled hydrogen peroxide assay, benzylamine substrate); conditions: read-out: Inhibitory Activity (IC50, nM) human VAP-1
T1 construct: purchased R&D systems
T1 sequence (Q16853 1-763): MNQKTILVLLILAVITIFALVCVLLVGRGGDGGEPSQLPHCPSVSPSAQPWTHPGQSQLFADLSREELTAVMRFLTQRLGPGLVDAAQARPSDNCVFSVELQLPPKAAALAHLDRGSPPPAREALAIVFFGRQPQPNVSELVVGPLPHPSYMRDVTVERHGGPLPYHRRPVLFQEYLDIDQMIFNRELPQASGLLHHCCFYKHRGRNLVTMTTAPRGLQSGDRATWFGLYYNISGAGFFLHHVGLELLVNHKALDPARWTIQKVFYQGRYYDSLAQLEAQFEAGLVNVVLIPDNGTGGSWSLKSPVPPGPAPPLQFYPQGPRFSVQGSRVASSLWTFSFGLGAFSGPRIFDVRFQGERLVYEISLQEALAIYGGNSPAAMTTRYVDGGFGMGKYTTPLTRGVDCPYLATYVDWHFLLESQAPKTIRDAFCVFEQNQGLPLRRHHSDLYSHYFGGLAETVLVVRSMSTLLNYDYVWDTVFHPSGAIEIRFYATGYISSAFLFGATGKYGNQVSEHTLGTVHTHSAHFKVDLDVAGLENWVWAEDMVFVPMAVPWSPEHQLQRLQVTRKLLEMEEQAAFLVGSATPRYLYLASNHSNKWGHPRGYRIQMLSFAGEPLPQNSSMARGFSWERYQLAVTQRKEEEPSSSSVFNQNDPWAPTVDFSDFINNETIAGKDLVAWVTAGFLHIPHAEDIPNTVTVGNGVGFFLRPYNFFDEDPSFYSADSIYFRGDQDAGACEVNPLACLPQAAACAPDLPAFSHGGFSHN
Method in brief: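 Hydrogen peroxide from benzylamine (1 mM) oxidation by human recombinant VAP-1 detected via HRP-coupled Amplex Red (200 uM) fluorescence, kinetic over 1–2 h. Enzyme and compound preincubated 30 min at 37 °C, pH 7.4 phosphate; 8-point dose response, signal-rate decrease versus DMSO control fitted to four-parameter logistic for IC50.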

[2] = molecular target: T2, recombinant human MAO-B (monoamine oxidase-B) (Homo sapiens, UniProt P27338); test: Activity evaluation on recombinant human MAO-B (Amplex Red/HRP-coupled assay, 1 mM benzylamine substrate); conditions: read-out: Inhibitory Activity (IC50, nM) MAO-B
T2 construct: purchased Sigma-Aldrich
T2 sequence (P27338 1-520): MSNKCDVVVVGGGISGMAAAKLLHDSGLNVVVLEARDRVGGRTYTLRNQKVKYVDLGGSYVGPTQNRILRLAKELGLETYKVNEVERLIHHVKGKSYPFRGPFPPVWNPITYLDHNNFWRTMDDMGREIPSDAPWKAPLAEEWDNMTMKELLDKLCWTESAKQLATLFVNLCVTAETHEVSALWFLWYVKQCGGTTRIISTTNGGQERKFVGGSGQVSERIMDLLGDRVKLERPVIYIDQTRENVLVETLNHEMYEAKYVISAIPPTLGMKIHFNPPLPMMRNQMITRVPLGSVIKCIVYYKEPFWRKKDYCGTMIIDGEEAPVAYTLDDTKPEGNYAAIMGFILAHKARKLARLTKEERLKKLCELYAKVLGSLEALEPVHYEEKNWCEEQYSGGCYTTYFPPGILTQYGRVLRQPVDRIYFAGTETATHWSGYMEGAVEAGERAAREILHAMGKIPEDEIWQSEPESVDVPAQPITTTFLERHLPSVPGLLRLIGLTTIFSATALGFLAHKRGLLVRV
Method in brief: (§1)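 8-pt 1:3 dilution series, final DMSO <1%; 30 min 37 °C preincubation w/ enzyme, 50 mM Na phosphate pH 7.4; + 200 uM Amplex Red, 1 U/mL HRP, substrate (MAO-A tyramine 0.5 mM; MAO-B benzylamine 1 mM; DAO putrescine 1 mM); fluor. rate 544/590 nm, 1-2 h; 4-param IC50.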

[3] = molecular target: T3, recombinant human MAO-A (monoamine oxidase-A) (Homo sapiens, UniProt P21397); test: Activity evaluation on recombinant human MAO-A (Amplex Red/HRP-coupled assay, 0.5 mM tyramine substrate); conditions: read-out: Inhibitory Activity (IC50, nM) MAO-A
T3 construct: purchased Sigma-Aldrich
T3 sequence (P21397 1-527): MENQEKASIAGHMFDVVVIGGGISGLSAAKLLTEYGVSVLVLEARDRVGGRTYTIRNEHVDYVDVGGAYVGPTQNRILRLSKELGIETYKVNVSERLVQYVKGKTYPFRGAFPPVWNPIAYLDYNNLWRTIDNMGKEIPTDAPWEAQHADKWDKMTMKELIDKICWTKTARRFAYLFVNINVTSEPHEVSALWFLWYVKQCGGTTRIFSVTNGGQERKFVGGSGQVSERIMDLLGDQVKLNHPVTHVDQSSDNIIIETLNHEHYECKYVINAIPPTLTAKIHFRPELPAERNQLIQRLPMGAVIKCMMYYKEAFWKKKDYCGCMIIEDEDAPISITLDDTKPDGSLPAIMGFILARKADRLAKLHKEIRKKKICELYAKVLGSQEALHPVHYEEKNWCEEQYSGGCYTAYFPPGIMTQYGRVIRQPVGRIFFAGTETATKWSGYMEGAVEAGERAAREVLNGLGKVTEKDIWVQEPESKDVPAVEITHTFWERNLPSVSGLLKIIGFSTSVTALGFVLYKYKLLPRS
Method in brief: as §1

[4] = molecular target: T4, recombinant human DAO (diamine oxidase) (Homo sapiens, UniProt P19801); test: Activity evaluation on recombinant human DAO (Amplex Red/HRP-coupled assay, 1 mM putrescine substrate); conditions: read-out: Inhibitory Activity (IC50, nM) DAO
T4 construct: purchased R&D systems
T4 sequence (P19801 20-751): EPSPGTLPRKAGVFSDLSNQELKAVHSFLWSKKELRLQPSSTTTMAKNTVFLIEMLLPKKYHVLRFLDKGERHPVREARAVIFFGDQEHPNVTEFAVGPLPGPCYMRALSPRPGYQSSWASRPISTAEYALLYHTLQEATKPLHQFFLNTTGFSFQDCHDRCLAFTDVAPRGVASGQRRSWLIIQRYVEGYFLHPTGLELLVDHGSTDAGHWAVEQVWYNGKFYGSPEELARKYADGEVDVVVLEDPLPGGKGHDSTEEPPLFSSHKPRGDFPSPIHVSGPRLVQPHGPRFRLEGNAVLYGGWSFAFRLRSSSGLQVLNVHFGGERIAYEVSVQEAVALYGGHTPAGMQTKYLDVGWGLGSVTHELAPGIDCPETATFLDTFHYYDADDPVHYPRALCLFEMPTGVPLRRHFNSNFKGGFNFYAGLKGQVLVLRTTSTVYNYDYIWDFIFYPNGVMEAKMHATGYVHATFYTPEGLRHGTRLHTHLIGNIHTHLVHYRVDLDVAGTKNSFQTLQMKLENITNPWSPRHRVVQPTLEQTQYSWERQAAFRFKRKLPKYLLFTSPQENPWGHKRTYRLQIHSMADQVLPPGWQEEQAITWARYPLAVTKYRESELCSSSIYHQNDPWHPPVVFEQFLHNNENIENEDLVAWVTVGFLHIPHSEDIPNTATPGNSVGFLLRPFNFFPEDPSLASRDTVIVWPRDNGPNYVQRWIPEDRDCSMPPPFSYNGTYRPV
Method in brief: as §1

[5] = recombinant human VAP-1, benzylamine substrate
[6] = recombinant human VAP-1, 30 min preincubation at 37° C., 1 mM benzylamine

| IC50 [1, 5] [nM] | IC50 ([2]; 1 mM benzylamine substrate) [nM] | IC50 ([3]; 0.5 mM tyramine substrate) [nM] | IC50 ([4]; 1 mM putrescine substrate) [nM] | IC50 [1, 6] [nM] | IC50 ([2]; 1 mM benzylamine) [nM] | IC50 ([3]; 0.5 mM tyramine) [nM] | IC50 ([4]; 1 mM putrescine) [nM] | SMILES |
| --- | --- | --- | --- | --- | --- | --- | --- | --- |
| 2.6 | 26000 | > 100000 | 72000 |  |  |  |  | CC(C)n1cc(-c2ccc(Cn3cnn(CC(CN)=C(F)F)c3=O)s2)cn1 [Example 184, 2-[2-(aminomethyl)-3,3-difluoro-allyl]-4-[[5-(1-isopropylpyrazol-4-yl)-2-thienyl]methyl]-1,2,4-triazol-3-one Trifluoroacetate] |
|  |  |  |  | 3 | > 100000 | > 100000 | > 100000 | Cc1ccc(Br)nc1-n1cnn(CC(CN)=C(F)F)c1=O [Example 15, 2-[2-(aminomethyl)-3,3-difluoro-allyl]-4-(6-bromo-3-methyl-2-pyridyl)-1,2,4-triazol-3-one Trifluoroacetate] |
| 1.9 | 740 | > 100000 | > 100000 |  |  |  |  | CN(C)c1ccc(-c2ccc3cc(Cn4cnn(CC(CN)=C(F)F)c4=O)sc3c2)cn1 [Example 200, 2-[2-(aminomethyl)-3,3-difluoro-allyl]-4-[[6-[6-(dimethylamino)-3-pyridyl]benzothiophen-2-yl]methyl]-1,2,4-triazol-3-one Trifluoroacetate] |
|  |  |  |  | 0.7 | 311 | > 100000 | 21000 | NCC(Cn1ncn(Cc2ccc(-c3ccc4nonc4c3)s2)c1=O)=C(F)F [Example 129, 2-[2-(aminomethyl)-3,3-difluoro-allyl]-4-[[5-(2,1,3-benzoxadiazol-5-yl)-2-thienyl]methyl]-1,2,4-triazol-3-one Trifluoroacetate] |
| 2.5 | > 100000 | > 100000 | > 100000 |  |  |  |  | Cc1cc(-c2cccc(-n3cnn(CC(CN)=C(F)F)c3=O)c2C)cc2c1NC(=O)CC2 [Example 258, 6-[3-[1-[2-(aminomethyl)-3,3-difluoro-allyl]-5-oxo-1,2,4-triazol-4-yl]-2-methyl-phenyl]-8-methyl-3,4-dihydro-1H-quinolin-2-one Trifluoroacetate] |
|  |  |  |  | 0.8 | > 100000 | > 100000 | > 100000 | Cc1cc(-c2ccc(N(C)C)nc2)cnc1-n1cnn(CC(CN)=C(F)F)c1=O [Example 71, 2-[2-(aminomethyl)-3,3-difluoro-allyl]-4-[5-[6-(dimethylamino)-3-pyridyl]-3-methyl-2-pyridyl]-1,2,4-triazol-3-one Trifluoroacetate] |
|  |  |  |  | 0.9 | 56000 | > 100000 | 59000 | CC(C)n1cc(-c2ccc(Cn3cnn(CC(CN)=C(F)F)c3=O)s2)ccc1=O [Example 123, 5-[5-[[1-[2-(aminomethyl)-3,3-difluoro-allyl]-5-oxo-1,2,4-triazol-4-yl]methyl]-2-thienyl]-1-isopropyl-pyridin-2-one Trifluoroacetate] |
| 2.1 | 1870 | > 100000 | > 100000 |  |  |  |  | NCC(Cn1ncn(Cc2ccc(-c3ccc4c(c3)OCO4)cc2)c1=O)=C(F)F [Example 268, 2-[2-(aminomethyl)-3,3-difluoro-allyl]-4-[[4-(1,3-benzodioxol-5-yl)phenyl]methyl]-1,2,4-triazol-3-one Trifluoroacetate] |
| 28 | > 100000 | > 100000 | > 100000 |  |  |  |  | NCC(Cn1ncn(Cc2ccccc2-c2ccc3c(c2)OCO3)c1=O)=C(F)F [Example 282, 2-[2-(aminomethyl)-3,3-difluoro-allyl]-4-[[2-(1,3-benzodioxol-5-yl)phenyl]methyl]-1,2,4-triazol-3-one Trifluoroacetate] |
| 0.7 | 12100 | > 100000 | 13900 |  |  |  |  | CCn1cc(-c2cccc(-c3ccc(Cn4cnn(CC(CN)=C(F)F)c4=O)s3)c2)cn1 [Example 287, 2-[2-(aminomethyl)-3,3-difluoro-allyl]-4-[[5-[3-(1-ethylpyrazol-4-yl)phenyl]-2-thienyl]methyl]-1,2,4-triazol-3-one Trifluoroacetate] |
| 2.4 | 101000 | > 100000 | > 100000 |  |  |  |  | Cc1c(-c2ccc3c(c2)OCO3)cccc1-n1cnn(CC(CN)=C(F)F)c1=O [Example 257, 2-[2-(aminomethyl)-3,3-difluoro-allyl]-4-[3-(1,3-benzodioxol-5-yl)-2-methyl-phenyl]-1,2,4-triazol-3-one Trifluoroacetate] |
|  |  |  |  | 2 | > 10000 | > 10000 | 42000 | CC(=O)N1CCN(c2ccc(-c3ccc(Cn4cnn(CC(CN)=C(F)F)c4=O)s3)cc2)CC1 [Example 108, 4-[[5-[4-(4-acetylpiperazin-1-yl)phenyl]-2-thienyl]methyl]-2-[2-(aminomethyl)-3,3-difluoro-allyl]-1,2,4-triazol-3-one Trifluoroacetate] |
|  |  |  |  | 2 | 39000 | > 100000 | > 10000 | NCC(Cn1ncn(-c2ccc(F)cc2)c1=O)=C(F)F [Example 1, 2-[2-(aminomethyl)-3,3-difluoro-allyl]-4-(4-fluorophenyl)-1,2,4-triazol-3-one Trifluoroacetate] |
